PubChem BioAssay (NCI)
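Five concentrations, 48 hours, 96-well plates. GI50 marks 50% less growth. TGI is the concentration that stops growth completely.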

Columns and labels:
Assay in all cases: DTP human tumour cell line panel, 48 h
MALME-3M melanoma = system: MALME-3M melanoma
TK-10 renal = system: TK-10 renal
MDA-MB-231 breast = system: MDA-MB-231 breast
NCI/ADR-RES ovarian = system: NCI/ADR-RES ovarian
A549 NSCLC = system: A549 NSCLC
PC-3 prostate = system: PC-3 prostate
NCI-H226 lung = system: NCI-H226 lung
M14 melanoma = system: M14 melanoma
MCF7 breast = system: MCF7 breast
K-562 leukemia = system: K-562 leukemia
SF-539 CNS = system: SF-539 CNS
CAKI-1 renal = system: CAKI-1 renal
HL-60(TB) leukemia = system: HL-60(TB) leukemia
SNB-19 CNS = system: SNB-19 CNS
CCRF-CEM leukemia = system: CCRF-CEM leukemia
SK-MEL-2 melanoma = system: SK-MEL-2 melanoma
MDA-MB-435 = system: MDA-MB-435
OVCAR-5 ovarian = system: OVCAR-5 ovarian
SR leukemia = system: SR leukemia
UACC-257 melanoma = system: UACC-257 melanoma
HCT-116 colon = system: HCT-116 colon
ACHN renal = system: ACHN renal
HT29 colon = system: HT29 colon
SNB-75 CNS = system: SNB-75 CNS
SN12C renal = system: SN12C renal
COLO 205 colon = system: COLO 205 colon
HCC-2998 colon = system: HCC-2998 colon
SF-295 CNS = system: SF-295 CNS
UACC-62 melanoma = system: UACC-62 melanoma
NCI-H23 lung = system: NCI-H23 lung
OVCAR-3 ovarian = system: OVCAR-3 ovarian
NCI-H522 lung = system: NCI-H522 lung
HOP-62 NSCLC = system: HOP-62 NSCLC
RXF 393 renal = system: RXF 393 renal
U251 CNS = system: U251 CNS
HS 578T breast = system: HS 578T breast
HCT-15 colon = system: HCT-15 colon
MOLT-4 leukemia = system: MOLT-4 leukemia
A498 renal = system: A498 renal
DU-145 prostate = system: DU-145 prostate
OVCAR-4 ovarian = system: OVCAR-4 ovarian
HOP-92 NSCLC = system: HOP-92 NSCLC
SK-OV-3 ovarian = system: SK-OV-3 ovarian
NCI-H460 lung = system: NCI-H460 lung
RPMI-8226 leukemia = system: RPMI-8226 leukemia
EKVX NSCLC = system: EKVX NSCLC
OVCAR-8 ovarian = system: OVCAR-8 ovarian
T-47D breast = system: T-47D breast
IGROV1 ovarian = system: IGROV1 ovarian
SF-268 CNS = system: SF-268 CNS
SK-MEL-28 melanoma = system: SK-MEL-28 melanoma
BT-549 breast = system: BT-549 breast
SW-620 colon = system: SW-620 colon
786-0 renal = system: 786-0 renal
UO-31 renal = system: UO-31 renal
KM12 colon = system: KM12 colon
SK-MEL-5 melanoma = system: SK-MEL-5 melanoma
LOX IMVI melanoma = system: LOX IMVI melanoma

With `c1ccc(-c2nc([P+](c3ccccc3)(c3ccccc3)c3ccccc3)c(N3CCOCC3)o2)cc1` the GI50 (MALME-3M melanoma) was 529 nM, the TGI (MALME-3M melanoma) was 6.13 µM and the GI50 (TK-10 renal) was 2750 nM. The TGI (TK-10 renal) was 15 µM, the GI50 (MDA-MB-231 breast) was 920 nM and the TGI (MDA-MB-231 breast) was 7.12 µM. It also gave a GI50 (NCI/ADR-RES ovarian) greater than 76.4 µM, a TGI (NCI/ADR-RES ovarian) greater than 100 µM and a GI50 (A549 NSCLC) of 2830 nM. The TGI (A549 NSCLC) was 48.6 µM, the GI50 (PC-3 prostate) was 450 nM and the TGI (PC-3 prostate) was 5.77 µM. For the same molecule, the GI50 (NCI-H226 lung) was 1980 nM, the TGI (NCI-H226 lung) was 8.5 µM and the GI50 (M14 melanoma) was 1560 nM. The TGI (M14 melanoma) was 10.9 µM, the GI50 (MCF7 breast) was 388 nM and the TGI (MCF7 breast) was 4.15 µM. For the same molecule, the GI50 (K-562 leukemia) was 439 nM, the TGI (K-562 leukemia) was greater than 74.8 µM and the GI50 (SF-539 CNS) was 2190 nM. It also gave a TGI (SF-539 CNS) of 12.2 µM, a GI50 (CAKI-1 renal) of 2260 nM and a TGI (CAKI-1 renal) of 6.47 µM. It also gave a GI50 (HL-60(TB) leukemia) of 322 nM, a TGI (HL-60(TB) leukemia) of 1600 nM and a GI50 (SNB-19 CNS) of 483 nM. For the same molecule, the TGI (SNB-19 CNS) was 15 µM, the GI50 (CCRF-CEM leukemia) was 1130 nM and the TGI (CCRF-CEM leukemia) was 36.6 µM. It also gave a GI50 (SK-MEL-2 melanoma) of 880 nM, a TGI (SK-MEL-2 melanoma) of 4.03 µM and a GI50 (MDA-MB-435) of 445 nM. For the same molecule, the TGI (MDA-MB-435) was 4.55 µM, the GI50 (OVCAR-5 ovarian) was 2450 nM and the TGI (OVCAR-5 ovarian) was 12.8 µM. It also gave a GI50 (SR leukemia) of 655 nM, a TGI (SR leukemia) of 20 µM and a GI50 (UACC-257 melanoma) of 406 nM. The TGI (UACC-257 melanoma) was 3.48 µM, the GI50 (HCT-116 colon) was 1040 nM and the TGI (HCT-116 colon) was 10.7 µM. The GI50 (ACHN renal) was 3.07 µM, the TGI (ACHN renal) was 12.7 µM and the GI50 (HT29 colon) was 715 nM. The TGI (HT29 colon) was greater than 33.3 µM, the GI50 (SNB-75 CNS) was 393 nM and the TGI (SNB-75 CNS) was 2730 nM. It also gave a GI50 (SN12C renal) of 934 nM, a TGI (SN12C renal) of 9.15 µM and a GI50 (COLO 205 colon) of 477 nM. The TGI (COLO 205 colon) was 2070 nM, the GI50 (HCC-2998 colon) was 1040 nM and the TGI (HCC-2998 colon) was 12.4 µM. For the same molecule, the GI50 (SF-295 CNS) was 2090 nM, the TGI (SF-295 CNS) was 5.54 µM and the GI50 (UACC-62 melanoma) was 589 nM. For the same molecule, the TGI (UACC-62 melanoma) was 2940 nM, the GI50 (NCI-H23 lung) was 1910 nM and the TGI (NCI-H23 lung) was 7.24 µM. It also gave a GI50 (OVCAR-3 ovarian) of 474 nM, a TGI (OVCAR-3 ovarian) of 4.28 µM and a GI50 (NCI-H522 lung) of 665 nM. For the same molecule, the TGI (NCI-H522 lung) was 5.43 µM, the GI50 (HOP-62 NSCLC) was 2110 nM and the TGI (HOP-62 NSCLC) was 10.6 µM. For the same molecule, the GI50 (RXF 393 renal) was 1590 nM, the TGI (RXF 393 renal) was 7.42 µM and the GI50 (U251 CNS) was 483 nM. For the same molecule, the TGI (U251 CNS) was 11.9 µM, the GI50 (HS 578T breast) was 1620 nM and the TGI (HS 578T breast) was 11.7 µM. It also gave a GI50 (HCT-15 colon) of 9.31 µM, a TGI (HCT-15 colon) of 58.8 µM and a GI50 (MOLT-4 leukemia) of 2260 nM. The TGI (MOLT-4 leukemia) was 14.8 µM, the GI50 (A498 renal) was 1710 nM and the TGI (A498 renal) was 5.58 µM. It also gave a GI50 (DU-145 prostate) of 1180 nM, a TGI (DU-145 prostate) of 12.9 µM and a GI50 (OVCAR-4 ovarian) of 424 nM. The TGI (OVCAR-4 ovarian) was 6.27 µM, the GI50 (HOP-92 NSCLC) was 446 nM and the TGI (HOP-92 NSCLC) was 3.2 µM. It also gave a GI50 (SK-OV-3 ovarian) of 1630 nM, a TGI (SK-OV-3 ovarian) of 6.34 µM and a GI50 (NCI-H460 lung) of 2480 nM. The TGI (NCI-H460 lung) was 12 µM, the GI50 (RPMI-8226 leukemia) was 295 nM and the TGI (RPMI-8226 leukemia) was 1430 nM. For the same molecule, the GI50 (EKVX NSCLC) was 2310 nM, the TGI (EKVX NSCLC) was 29.5 µM and the GI50 (OVCAR-8 ovarian) was 1180 nM. The TGI (OVCAR-8 ovarian) was 10.2 µM, the GI50 (T-47D breast) was 358 nM and the TGI (T-47D breast) was 6.81 µM. It also gave a GI50 (IGROV1 ovarian) of 557 nM, a TGI (IGROV1 ovarian) of 8.35 µM and a GI50 (SF-268 CNS) of 844 nM. The TGI (SF-268 CNS) was 11.1 µM, the GI50 (SK-MEL-28 melanoma) was 704 nM and the TGI (SK-MEL-28 melanoma) was 13.1 µM. For the same molecule, the GI50 (BT-549 breast) was 523 nM, the TGI (BT-549 breast) was 6.77 µM and the GI50 (SW-620 colon) was 926 nM. The TGI (SW-620 colon) was 20.1 µM, the GI50 (786-0 renal) was 3.92 µM and the TGI (786-0 renal) was 28.8 µM. It also gave a GI50 (UO-31 renal) of 6.37 µM, a TGI (UO-31 renal) of 25.7 µM and a GI50 (KM12 colon) of 385 nM. It also gave a TGI (KM12 colon) of 2040 nM, a GI50 (SK-MEL-5 melanoma) of 654 nM and a TGI (SK-MEL-5 melanoma) of 1960 nM. For the same molecule, the GI50 (LOX IMVI melanoma) was 1490 nM and the TGI (LOX IMVI melanoma) was 3.9 µM.
